Laboratory results published in PubChem BioAssay (NCI).
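Five concentrations, 48 hours, 96-well plates. Abbreviation: GI50, concentration required for 50% inhibition of growth. TGI is the concentration that stops growth completely.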

Columns and labels:
Experiment in all cases: DTP human tumour cell line panel, 48 h
[1] = system: OVCAR-8 ovarian
[2] = system: SNB-75 CNS
[3] = system: SF-295 CNS
[4] = system: NCI-H226 lung
[5] = system: HT29 colon
[6] = system: CCRF-CEM leukemia
[7] = system: SN12C renal
[8] = system: ACHN renal
[9] = system: MALME-3M melanoma
[10] = system: HOP-62 NSCLC
[11] = system: A498 renal
[12] = system: TK-10 renal
[13] = system: HL-60(TB) leukemia
[14] = system: CAKI-1 renal
[15] = system: RPMI-8226 leukemia
[16] = system: LXFL 529 NSCLC
[17] = system: SK-MEL-2 melanoma
[18] = system: A549 NSCLC
[19] = system: M19-MEL melanoma
[20] = system: UO-31 renal
[21] = system: SF-268 CNS
[22] = system: U251 CNS
[23] = system: COLO 205 colon
[24] = system: SK-MEL-28 melanoma
[25] = system: NCI-H522 lung
[26] = system: IGROV1 ovarian
[27] = system: EKVX NSCLC
[28] = system: OVCAR-3 ovarian
[29] = system: HCT-15 colon
[30] = system: DMS 114 small cell lung
[31] = system: HCC-2998 colon
[32] = system: LOX IMVI melanoma
[33] = system: SW-620 colon
[34] = system: HOP-92 NSCLC
[35] = system: NCI-H460 lung
[36] = system: OVCAR-5 ovarian
[37] = system: DLD-1 colon
[38] = system: SK-MEL-5 melanoma
[39] = system: SNB-19 CNS
[40] = system: HOP-18 NSCLC
[41] = system: SR leukemia
[42] = system: KM12 colon
[43] = system: UACC-257 melanoma
[44] = system: DMS 273 small cell lung
[45] = system: SNB-78 CNS
[46] = system: OVCAR-4 ovarian
[47] = system: 786-0 renal
[48] = system: UACC-62 melanoma
[49] = system: MOLT-4 leukemia
[50] = system: M14 melanoma
[51] = system: RXF 393 renal
[52] = system: HCT-116 colon
[53] = system: KM20L2 colon
[54] = system: SF-539 CNS
[55] = system: SK-OV-3 ovarian
[56] = system: NCI-H23 lung
[57] = system: XF 498 CNS
[58] = system: K-562 leukemia

In the case of C/C(=N\NC(=O)c1cccnc1)c1cccc(/C(C)=N/NC(=O)c2cccnc2)n1.CC(=O)[O-].CC(=O)[O-].[Zn+2], the TGI [1] is reported as > 39.4 µM, the GI50 [2] is reported as 24.7 µM and the TGI [2] is reported as 98.2 µM. The TGI [3] was > 30.2 µM, the TGI [4] was 27.2 µM and the GI50 [5] was 5.64 µM. The TGI [5] was > 100 µM, the GI50 [6] was 0.783 µM and the TGI [6] was 65.6 µM. The TGI [7] was > 100 µM, the TGI [8] was > 68 µM and the GI50 [9] was 19.3 µM. For the same compound, the TGI [9] was > 79.9 µM, the TGI [10] was 65.6 µM and the GI50 [11] was > 100 µM. For the same compound, the TGI [11] was > 100 µM, the TGI [12] was > 100 µM and the GI50 [13] was 0.492 µM. For the same compound, the TGI [13] was 2.86 µM, the TGI [14] was 31.4 µM and the TGI [15] was > 100 µM. The GI50 [16] was 0.836 µM, the TGI [16] was > 100 µM and the TGI [17] was > 54.9 µM. For the same compound, the TGI [18] was > 57.4 µM, the TGI [19] was > 100 µM and the TGI [20] was > 100 µM. The TGI [21] was 84.4 µM, the TGI [22] was > 100 µM and the GI50 [23] was 0.904 µM. The TGI [23] was > 100 µM, the GI50 [24] was 29.4 µM and the TGI [24] was > 100 µM. For the same compound, the GI50 [25] was 0.134 µM, the TGI [25] was > 21.7 µM and the GI50 [26] was 10.1 µM. For the same compound, the TGI [26] was > 43.4 µM, the TGI [27] was > 100 µM and the GI50 [28] was 0.843 µM. The TGI [28] was > 100 µM, the TGI [29] was > 100 µM and the GI50 [30] was 0.949 µM. The TGI [30] was 20.1 µM, the GI50 [31] was 0.995 µM and the TGI [31] was > 100 µM. The TGI [32] was > 32.5 µM, the TGI [33] was > 100 µM and the GI50 [34] was 1.55 µM. The TGI [34] was 6.47 µM, the TGI [35] was > 100 µM and the TGI [36] was > 100 µM. The TGI [37] was > 100 µM, the GI50 [38] was 12.9 µM and the TGI [38] was > 28.6 µM. For the same compound, the TGI [39] was > 100 µM, the GI50 [40] was 2.55 µM and the TGI [40] was > 26.9 µM. The GI50 [41] was 0.793 µM, the TGI [41] was 10.8 µM and the TGI [42] was > 100 µM. It also gave a TGI [43] of 99.7 µM, a GI50 [44] of 2.15 µM and a TGI [44] of 98.1 µM. For the same compound, the GI50 [45] was 32 µM, the TGI [45] was > 100 µM and the TGI [46] was > 100 µM. For the same compound, the TGI [47] was > 100 µM, the TGI [48] was 10.7 µM and the TGI [49] was 11.4 µM. For the same compound, the TGI [50] was > 47.2 µM, the TGI [51] was 36.8 µM and the GI50 [52] was 1.68 µM. For the same compound, the TGI [52] was > 100 µM, the TGI [53] was > 100 µM and the TGI [54] was 6.55 µM. For the same compound, the TGI [55] was > 100 µM and the TGI [56] was > 67 µM.

In the case of Cc1ccc(C(=O)N2c3ccccc3N(C)n3cccc3C2CC(=O)O)cc1 (stereo not given), the TGI [1] is reported as > 100 µM, the TGI [2] is reported as > 100 µM and the TGI [3] is reported as > 100 µM. For the same compound, the TGI [4] was > 100 µM, the TGI [5] was > 100 µM and the TGI [6] was > 100 µM. For the same compound, the TGI [7] was > 100 µM, the TGI [8] was > 100 µM and the TGI [9] was > 100 µM. For the same compound, the TGI [10] was > 100 µM, the TGI [11] was > 100 µM and the TGI [12] was > 100 µM. The TGI [13] was > 100 µM, the TGI [14] was > 100 µM and the TGI [15] was > 100 µM. The TGI [16] was > 100 µM, the TGI [17] was > 100 µM and the TGI [57] was > 100 µM. For the same compound, the TGI [18] was > 100 µM, the TGI [19] was > 100 µM and the TGI [20] was > 100 µM. For the same compound, the TGI [21] was > 100 µM, the TGI [23] was > 100 µM and the TGI [24] was > 100 µM. For the same compound, the TGI [25] was > 100 µM, the TGI [26] was > 100 µM and the TGI [27] was > 100 µM. For the same compound, the TGI [28] was > 100 µM, the TGI [29] was > 100 µM and the TGI [30] was > 100 µM. For the same compound, the TGI [31] was > 100 µM, the TGI [32] was > 100 µM and the TGI [33] was > 100 µM. For the same compound, the TGI [34] was > 100 µM, the TGI [35] was > 100 µM and the TGI [58] was > 100 µM. The TGI [36] was > 100 µM, the TGI [37] was > 100 µM and the TGI [38] was > 100 µM. For the same compound, the TGI [39] was > 100 µM, the TGI [42] was > 100 µM and the TGI [43] was > 100 µM. The TGI [44] was > 100 µM, the TGI [45] was > 100 µM and the TGI [46] was > 100 µM. The TGI [47] was > 100 µM, the TGI [48] was > 100 µM and the TGI [49] was > 100 µM. For the same compound, the TGI [50] was > 100 µM, the TGI [51] was > 100 µM and the TGI [53] was > 100 µM. For the same compound, the TGI [54] was > 100 µM and the TGI [56] was > 100 µM.
